Experiments:
[1] = Storage stability of analytes in rat plasma (method validation); details: for Auto-Sampler Stability at 2–8 °C (72 h), Bias / Auto-Sampler Stability at 2–8 °C (72 h), Measured Concentration: processed rat plasma; for Auto-Sampler Stability at 2–8 °C (72 h), Bias / Short-Term Stability at Room Temperature (4 h), Bias / Freeze and Thaw Stability at −80 °C/Room Temperature (3 Cycles), Bias / Long-Term Stability at −80 °C (70 days), Bias: n = 6; for Auto-Sampler Stability at 2–8 °C (72 h), Measured Concentration / Freeze and Thaw Stability at −80 °C/Room Temperature (3 Cycles), Measured Concentration / Long-Term Stability at −80 °C (70 days), Measured Concentration / Short-Term Stability at Room Temperature (4 h), Measured Concentration: n = 6, mean ± SD; for Short-Term Stability at Room Temperature (4 h), Bias / Freeze and Thaw Stability at −80 °C/Room Temperature (3 Cycles), Bias / Long-Term Stability at −80 °C (70 days), Bias / Freeze and Thaw Stability at −80 °C/Room Temperature (3 Cycles), Measured Concentration / Long-Term Stability at −80 °C (70 days), Measured Concentration / Short-Term Stability at Room Temperature (4 h), Measured Concentration: rat plasma; for Short-Term Stability at Room Temperature (4 h), Bias: bias from nominal
Procedure: (§5) By investigating low- and high-concentration stability QCs in six replicates at different storage conditions, autosampler, short-term (bench-top), freeze and thaw, and long-term stability evaluations were conducted.

[2] = Storage stability of analytes in mouse plasma (method validation); details: for Freeze and thaw stability at -80 °C/ room temperature, Bias / Freeze and thaw stability at -80 °C/ room temperature, Measured concentration / Long term stability at -80 °C (30 days), Bias / Short term stability at room temperature (6 h), Bias / Long term stability at -80 °C (30 days), Measured concentration / Short term stability at room temperature (6 h), Measured concentration: mouse plasma; for Freeze and thaw stability at -80 °C/ room temperature, Bias / Freeze and thaw stability at -80 °C/ room temperature, Measured concentration: 1 cycle; for Freeze and thaw stability at -80 °C/ room temperature, Bias / Long term stability at -80 °C (30 days), Bias / Short term stability at room temperature (6 h), Bias / Auto-sampler stability at 2-8 °C, Bias: n = 6; for Freeze and thaw stability at -80 °C/ room temperature, Measured concentration / Long term stability at -80 °C (30 days), Measured concentration / Short term stability at room temperature (6 h), Measured concentration / Auto-sampler stability at 2-8 °C, Measured concentration: n = 6, mean ± SD; for Auto-sampler stability at 2-8 °C, Bias / Auto-sampler stability at 2-8 °C, Measured concentration: processed mouse plasma, 12 h
Procedure: as §5

[3] = Single-dose pharmacokinetic study of legubicin, i.v.; details: free metabolite in plasma; for AUClast / Cmax: n = 3, mean ± SD; for Tmax: n = 3, median [min, max]
Procedure: The pharmacokinetic parameters are outlined in Table 5. […] A power-function model was used to fit the relationship between exposure level (Cmax, AUClast, and AUCINF_obs) parameters and dose, and the power exponent (parameter β) and its 90% confidence interval were obtained (see Table S5).
(§1) The mixture was vortexed for 3 min, and then centrifuged at 22,000× g at 4 °C for 10 min. A final analysis was conducted by injecting 5 µL supernatant into a UHPLC-MS/MS system. Mouse plasma samples were treated in the same way as the rat plasma samples, except for protein precipitation, with 200 µL of 5 pmol/mL IS working solution and injection of 2 µL of supernatant for analysis.
(§2) (1) For the hydrolysis process, an aliquot of 25 µL of rat/mouse plasma was transferred into an Eppendorf tube, and then 50 µL of enzyme digestion buffer and 25 µL of legumain enzyme were placed into the tube. The mixture was vortexed for 1 min, and then incubated in a water bath for 24 h at 37 °C for enzymatic hydrolysis. (2) For the protein precipitation process, 1000 µL of IS working solution (5 pmol/mL and 50 pmol/mL for rat and mouse plasmas, respectively) was added to the enzymatic-hydrolysis solution. Then, the sample was vortexed for 3 min and centrifuged at 22,000× g for 10 min at 4 °C. Analyses were performed on the 3 µL aliquot of the solution used in the UHPLC-MS/MS system.
(§3) Twenty-four rats, inclusive of both sexes, were randomly distributed into four groups. Groups 1, 2, and 3 were single-dose groups, among which the subjects received legubicin via tail intravenous injection (a dose of 1.5, 5, or 15 mg/kg; i.e., 1.36, 4.52, or 13.6 µmol/kg). The fourth group was utilized for a multi-dose study at 5 mg/kg (once-weekly for 4 consecutive weeks). Blood samples of approximately 150 µL were taken from the jugular vein at 0 h (pre-dosing) and at 0.167 h (10 min), 0.5 h, 1 h, 2 h, 4 h, 8 h, 24 h, 48 h, and 72 h post-dosing in the single-dose groups. Samples were also obtained on days 1 and 22 for the multiple-dose group in the same way as for the single-dose groups. However, on days 8 and 15, samples were taken only before and 10 min after administration. The K2EDTA quantities containing blood samples were centrifuged (4 °C, 4000 rpm, 10 min) to collect plasma samples, which were separated into EP tubes and kept at −80 °C until further assay.
(§4) The analysis software (Version 1.5.2, AB Sciex, Vaughan, ON, Canada) was applied to data acquisition and quantification. Pharmacokinetic parameters were calculated with WinNonlin Phoenix (v6.4, Pharsight, Mountain View, CA, USA) with the noncompartmental method, and were presented as mean ± SD (%CV). The “Best fit” strategy in the WinNonlin Phoenix was used for the calculation of elimination half-life and the selection of the elimination phase. Graphs were plotted by GraphPad Software (GraphPad Prism 8.0.2; GraphPad Software, Inc., La Jolla, CA, USA).

[4] = Tissue-distribution study after i.v. legubicin or doxorubicin; details: HT1080 tumor-bearing mice
Procedure: as §1
Each legubicin administration group corresponded to a sampling time-point (4, 16, 32, 48, 96, 168, and 240 h after administration). […] Blood samples and tumor, heart, and kidney tissues were collected at the sampling time points (4, 16, 32, 48, 96, 168, and 240 h after dosing). In addition, liver, spleen, lung, stomach, small intestine, gonads, brain, skeletal muscle, and skin were also collected at 4, 32, 96, and 240 h post-dose time points in the legubicin administration group. All whole-blood samples were processed according to the same processing steps, described above, for rat whole-blood samples.
as §4

[5] = Storage stability of analytes in mouse liver homogenate (method validation)
Procedure: Tumor-bearing mouse tumor/individual tissue samples were homogenized by adding PBS at a ratio of 1:5 (e.g., 1 g of tumor sample to 5 mL of PBS) to make a tumor/tissue homogenate. A quantity of 60 µL of homogenate was taken as a tumor/tissue sample and processed in the same manner as the mouse plasma sample, with the exception of 240 µL of IS working solution used for protein precipitation.
as §5

[6] = Multiple-dose pharmacokinetic study of legubicin, weekly i.v. for 4 weeks; details: free metabolite in plasma, weekly i.v. legubicin 5 mg/kg; for Tmax: median [min, max]; for AUClast / Cmax: n = 3
Procedure: as §1, §2, §3, §4

[7] = high QC (Leu-DOX 4000, DOX 1200 pmol/mL, conjugate 80 nmol/mL)
[8] = high QC (nominal Leu-DOX 4000, DOX 1200 pmol/mL)
[9] = low QC (Leu-DOX 10, DOX 3 pmol/mL, conjugate 0.2 nmol/mL)
[10] = low QC (nominal Leu-DOX 10, DOX 3 pmol/mL)
[11] = high QC (Leu-DOX 2400, DOX 800 pmol/mL)
[12] = high QC (nominal Leu-DOX 2400, DOX 800 pmol/mL)
[13] = low QC (Leu-DOX 9, DOX 3 pmol/mL)
[14] = low QC (nominal Leu-DOX 9, DOX 3 pmol/mL)
[15] = high QC (Leu-DOX 2400, DOX 800 pmol/mL, conjugate 80 nmol/mL)
[16] = low QC (Leu-DOX 9, DOX 3 pmol/mL, conjugate 0.2 nmol/mL)
[17] = female SD rats, single i.v. legubicin 5 mg/kg
[18] = female SD rats, single i.v. legubicin 15 mg/kg
[19] = male SD rats, single i.v. legubicin 5 mg/kg
[20] = male SD rats, single i.v. legubicin 15 mg/kg
[21] = i.v. 9.05 µmol/kg of the labelled drug, n = 6, UHPLC-MS/MS
[22] = female SD rats, multiple dose (day 22)
[23] = female SD rats, single dose (day 1)
[24] = male SD rats, multiple dose (day 22)
[25] = male SD rats, single dose (day 1)

COc1cccc2c1C(=O)c1c(O)c3c(c(O)c1C2=O)C[C@@](O)(C(=O)CO)C[C@@H]3O[C@H]1C[C@H](N)[C@H](O)[C@H](C)O1 [DOX, Doxorubicin]
Auto-Sampler Stability at 2–8 °C (72 h), Bias [1, 7]: 1.0%
Auto-Sampler Stability at 2–8 °C (72 h), Measured Concentration [1, 8]: 1211.67 ± 104.58 nM
Auto-Sampler Stability at 2–8 °C (72 h), Bias [1, 9]: 4.4%
Auto-Sampler Stability at 2–8 °C (72 h), Measured Concentration [1, 10]: 3.13 ± 0.25 nM
Short-Term Stability at Room Temperature (4 h), Bias [1, 7]: 3.2%
Freeze and Thaw Stability at −80 °C/Room Temperature (3 Cycles), Bias [1, 7]: 1.8%
Long-Term Stability at −80 °C (70 days), Bias [1, 7]: −0.8%
Freeze and Thaw Stability at −80 °C/Room Temperature (3 Cycles), Measured Concentration [1, 8]: 1221.67 ± 97.45 pmol/mL
Long-Term Stability at −80 °C (70 days), Measured Concentration [1, 8]: 1190.00 ± 40.50 pmol/mL
Short-Term Stability at Room Temperature (4 h), Measured Concentration [1, 8]: 1238.33 ± 100.48 pmol/mL
Short-Term Stability at Room Temperature (4 h), Bias [1, 9]: 1.2%
Freeze and Thaw Stability at −80 °C/Room Temperature (3 Cycles), Bias [1, 9]: 0.4%
Long-Term Stability at −80 °C (70 days), Bias [1, 9]: −0.6%
Freeze and Thaw Stability at −80 °C/Room Temperature (3 Cycles), Measured Concentration [1, 10]: 3.01 ± 0.15 pmol/mL
Long-Term Stability at −80 °C (70 days), Measured Concentration [1, 10]: 2.98 ± 0.29 pmol/mL
Short-Term Stability at Room Temperature (4 h), Measured Concentration ([1]; low QC (nominal Leu-DOX 10, DOX 3 pmol/mL), UHPLC-MS/MS): 3.04 ± 0.18 pmol/mL
Freeze and thaw stability at -80 °C/ room temperature, Bias [2, 11]: -7.0%
Freeze and thaw stability at -80 °C/ room temperature, Measured concentration [2, 12]: 744.33 ± 11.66 pmol/mL
Freeze and thaw stability at -80 °C/ room temperature, Bias [2, 13]: -8.6%
Freeze and thaw stability at -80 °C/ room temperature, Measured concentration [2, 14]: 2.74 ± 0.07 pmol/mL
Long term stability at -80 °C (30 days), Bias [2, 15]: 4.8%
Short term stability at room temperature (6 h), Bias [2, 15]: -9.3%
Long term stability at -80 °C (30 days), Measured concentration [2, 12]: 838.33 ± 13.81 pmol/mL
Short term stability at room temperature (6 h), Measured concentration [2, 12]: 728.83 ± 15.41 pmol/mL
Long term stability at -80 °C (30 days), Bias [2, 16]: -1.1%
Short term stability at room temperature (6 h), Bias [2, 16]: -9.4%
Long term stability at -80 °C (30 days), Measured concentration [2, 14]: 2.97 ± 0.23 pmol/mL
Short term stability at room temperature (6 h), Measured concentration [2, 14]: 2.72 ± 0.17 pmol/mL
Auto-sampler stability at 2-8 °C, Bias [2, 11]: -8.2%
Auto-sampler stability at 2-8 °C, Measured concentration [2, 12]: 734.00 ± 10.90 pmol/mL
Auto-sampler stability at 2-8 °C, Bias [2, 13]: -7.9%
Auto-sampler stability at 2-8 °C, Measured concentration [2, 14]: 2.76 ± 0.16 pmol/mL
AUClast [3, 17]: 0.1 ± 0.00538 µM·h
Cmax [3, 17]: 3.11 ± 0.615 nM
Tmax [3, 17]: 0.167 [0.167, 0.167] h
AUClast [3, 18]: 0.486 ± 0.0464 µM·h
Cmax [3, 18]: 20.5 ± 5.06 nM
Tmax [3, 18]: 0.167 [0.167, 0.167] h
AUClast [3, 19]: 0.173 ± 0.0243 µM·h
Cmax [3, 19]: 6.65 ± 1.30 nM
Tmax [3, 19]: 0.167 [0.167, 0.167] h
AUClast [3, 20]: 0.789 ± 0.0997 µM·h
Cmax [3, 20]: 44.2 ± 4.65 nM
Tmax [3, 20]: 0.167 [0.167, 0.167] h
AUClast of doxorubicin in heart [4, 21]: 29.0 nmol·h/g
AUClast of doxorubicin in kidney [4, 21]: 83.5 nmol·h/g
AUClast of doxorubicin in plasma [4, 21]: 1.07 nmol·h/g
AUClast of doxorubicin in tumor [4, 21]: 63.1 nmol·h/g
order of exposure (Dox distribution) ([4]; after i.v. doxorubicin 9.05 µmol/kg, n = 6): kidney > tumor > heart > plasma
time of maximum concentration (Cmax) in all tissues ([4]; after i.v. doxorubicin 9.05 µmol/kg, initial sampling point): 4 h
brain penetration of the metabolite ([4]; after i.v. legubicin 9.05 µmol/kg): neither the metabolite doxorubicin nor free Leu-Dox permeated the brain
tissue concentration rank order of the metabolite ([4]; after i.v. legubicin 9.05 µmol/kg, n = 6): liver having the highest levels, followed by the tumor, skin, lung, gonads, spleen, kidney, stomach, small intestine, skeletal muscle, heart, and plasma
Freeze and thaw stability at -80 °C/ room temperature, Measured concentration ([5]; mouse liver homogenate, 3 cycles, low QC (nominal Leu-DOX 27, DOX 10 pmol/mL), n = 6, mean ± SD): 11.04 ± 0.68 pmol/mL
Short term stability at room temperature (6 h), Bias ([5]; mouse liver homogenate, low QC (Leu-DOX 27, DOX 10 pmol/mL), n = 6): 0.8%
Short term stability at room temperature (6 h), Measured concentration ([5]; mouse liver homogenate, low QC (nominal Leu-DOX 27, DOX 10 pmol/mL), n = 6, mean ± SD): 10.08 ± 0.52 pmol/mL
Auto-sampler stability at 2-8 °C, Measured concentration ([5]; processed mouse liver homogenate, 48h, low QC (nominal Leu-DOX 27, DOX 10 pmol/mL), n = 6, mean ± SD): 11.06 ± 0.81 pmol/mL
Tmax [6, 22]: 0.167 [0.167, 0.167] h
AUClast [6, 22]: 0.174 ± 0.0367 µM·h
Cmax [6, 22]: 4.70 ± 0.534 nM
Tmax [6, 23]: 0.167 [0.167, 0.167] h
AUClast [6, 23]: 0.0945 ± 0.0447 µM·h
Cmax [6, 23]: 3.10 ± 0.367 nM
Tmax [6, 24]: 0.167 [0.167, 0.167] h
AUClast [6, 24]: 0.207 ± 0.0112 µM·h
Cmax [6, 24]: 8.58 ± 0.616 nM
Tmax [6, 25]: 0.167 [0.167, 0.167] h
AUClast [6, 25]: 0.123 ± 0.0441 µM·h
Cmax [6, 25]: 6.01 ± 0.430 nM

Source: paper PMC10892419, “UHPLC-MS/MS Assay for Quantification of Legubicin, a Novel Doxorubicin-Based Legumain-Activated Prodrug, and Its Application to Pharmacokinetic and Tissue Distribution Studies” (Molecules, 2024)
